Measured values from US11723894B2, “Combination product for the treatment of neurological and/or psychiatric disorders” (Consejo Superior de Investigaciones Cientificas (CSIC), priority 2017, dated 2023).
pKi: −log10 of the molar value.

Experiments:
[1] = test system: subgranular zone of the hippocampus; assay: Long-term (21 days) in vivo neurogenesis in the subgranular zone of the hippocampus (BrdU/NeuN, BrdU/DCX); parameters: species or system C57BL/6 mice; settings: antagonist 0.2 μg/animal with DMT 0.1 μg/animal, every other day for 3 weeks
Procedure: Adult male C57BL/6 mice (obtained from Charles River Labs, Barcelona, Spain) were injected every other day for 3 weeks with DMT (0.1 μg/animal), alone or in combination with the selective Sigma-1 BD1063 antagonist (BD, 0.2 μg/animal, Sigma, Catalog number SML0276), the mixed 5-HT2A/1A receptor antagonist methiothepin (Met, 0.2 μg/animal, Sigma, Catalog number M149), or the selective 5-HT1A receptor antagonist WAY100635 (WAY, 0.2 μg/animal, ABCAM catalog number ab120550). On day 1 of treatment, animals were intraperitoneally injected with the proliferation marker 5-bromo-2-deoxyuridine (BrdU, 50 mg/kg, Sigma, Catalog number B5002) and sacrificed on day 21. Following anesthesia, the animals were perfused transcardially with 4% paraformaldehyde, and the brains obtained and post-fixed in the same solution at 4-8° C. overnight. They were subsequently cryoprotected, frozen, and finally cut into 30 μm coronal sections in a cryostat. Free-floating sections were immunostained using immunofluorescence analysis. For BrdU detection, samples were first incubated with 2 M HCl for 30 minutes at 37° C. before blocking 1 hour in PBS containing 5% normal serum, 0.1 M lysine, and 0.1% Triton X-100. Sections were then incubated with anti-BrdU mouse monoclonal antibody (DAKO, Barcelona, Spain, Catalog number M0744) combined with a neuronal marker, anti-neuN rabbit antibody (Abcam, Cambridge, UK. Catalog number ABN78) or an anti-double courtin (DCX) goat antibody (Santa Cruz Biotech. USA) at 4° C. overnight, washed three times and incubated with Alexa Fluor-488 goat anti-mouse and Alexa 647-goat anti-rabbit or -horse anti-goat secondary antibodies (Molecular Probes, Madrid, Spain), respectively, for 1 hour at room temperature. After rinses, sections were mounted with Vectashield.

[2] = test system: hippocampal subgranular neurogenic niche; assay: Short-term (4 days) in vivo activation of the hippocampal subgranular neurogenic niche (BrdU); parameters: species or system C57BL/6 mice; settings: antagonist 0.2 μg/animal with DMT 0.1 μg/animal
Procedure: Adult male C57BL/6 mice (obtained from Charles River Labs) were injected in the lateral ventricle (coordinates: from bregma, posterior −1 mm, lateral +1.3 mm, ventral +2 mm, according to the atlas of Paxinos and Franklin (Paxinos G, Franklin KBJ. The Mouse Brain in Stereotaxic Coordinates. 4. San Diego: Academic Press; 2012)), using a stereotaxic apparatus (Kopf Instruments, CA) with DMT (0.1 μg/animal), alone or in combination with the selective Sigma-1 BD1063 (BD, 0.2 μg/animal, Sigma, catalog number SML0276), the mixed 5-HT2A/1A receptor antagonist methiothepin (Met, 0.2 μg/animal, Sigma catalog number M149), or the selective 5-HT1A receptor antagonist WAY100635 (WAY, 0.2 μg/animal, ABCAM catalog number ab120550). Prior to the injection, mice were anesthetized by intraperitoneal injection of ketamine (60 mg/kg) and medetomidine (0.125 mg/kg). […] The boundaries of these nervous system regions were determined with reference to internal anatomic landmarks (Paxinos G, Franklin KBJ. The Mouse Brain in Stereotaxic Coordinates. 4. San Diego: Academic Press; 2012). For DG area selection, images were analyzed using computer-assisted image analysis software (Soft Imaging System Corporation, Lakewood, Colo., http://www.soft-imaging.com). Positive cells, which intersected the uppermost focal plane (exclusion plane) and the lateral exclusion boundaries of the counting frames, were not counted. […]

D2 = D2 (Homo sapiens, UniProt P14416); settings: D2 Antag; cited from earlier work
5HT2A = 5HT2A (Homo sapiens, UniProt P28223); settings: 5HT2A Antagonist; cited from earlier work
Sequence of 5HT2A (P28223 whole entry): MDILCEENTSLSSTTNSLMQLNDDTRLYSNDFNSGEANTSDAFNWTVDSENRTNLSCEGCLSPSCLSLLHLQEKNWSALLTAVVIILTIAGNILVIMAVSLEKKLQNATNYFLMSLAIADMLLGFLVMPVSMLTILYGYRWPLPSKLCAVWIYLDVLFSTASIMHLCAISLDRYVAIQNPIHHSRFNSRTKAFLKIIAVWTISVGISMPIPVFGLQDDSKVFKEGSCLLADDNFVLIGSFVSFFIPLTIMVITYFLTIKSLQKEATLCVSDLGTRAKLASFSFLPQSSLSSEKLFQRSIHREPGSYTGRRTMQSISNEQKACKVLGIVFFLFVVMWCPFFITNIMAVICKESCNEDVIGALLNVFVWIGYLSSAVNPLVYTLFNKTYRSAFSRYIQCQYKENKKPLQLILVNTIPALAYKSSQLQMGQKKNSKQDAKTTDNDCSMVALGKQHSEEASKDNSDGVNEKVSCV

Sequence of D2 (P14416 whole entry): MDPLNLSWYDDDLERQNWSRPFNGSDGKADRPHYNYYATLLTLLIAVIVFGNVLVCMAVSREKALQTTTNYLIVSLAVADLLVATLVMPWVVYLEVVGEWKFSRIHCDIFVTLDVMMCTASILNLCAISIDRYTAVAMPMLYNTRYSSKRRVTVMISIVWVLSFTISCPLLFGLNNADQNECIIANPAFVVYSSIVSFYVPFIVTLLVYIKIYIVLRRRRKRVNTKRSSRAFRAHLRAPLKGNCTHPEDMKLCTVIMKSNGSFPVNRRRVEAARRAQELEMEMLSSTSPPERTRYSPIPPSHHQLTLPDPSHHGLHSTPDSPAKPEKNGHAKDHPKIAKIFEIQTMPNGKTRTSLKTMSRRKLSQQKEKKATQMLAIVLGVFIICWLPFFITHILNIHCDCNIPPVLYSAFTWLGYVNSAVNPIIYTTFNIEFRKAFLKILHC

Structure (SMILES) | blockade of the DMT neurogenic effect in vivo [1] | blockade of DMT stimulatory effects in vivo [2] | pKi (D2) | pKi (5HT2A)
CN1CCN(CCc2ccc(Cl)c(Cl)c2)CC1 [BD1063] | blocked | completely blocked |  | 
CCNC(=O)N1CCN(CCCC(c2ccc(F)cc2)c2ccc(F)cc2)CC1 [Amperozide] |  |  | 6.85 | 7.92
